One data set concerns the target T1, Human PDE10A enzyme (Homo sapiens, UniProt Q9Y233).
T1 construct: transfected with the full-length gene; His-tag; made in house; host or cells: Sf9 or COS-7 cells
In words: PDE enzyme inhibition, SPA (Scintillation Proximity Assay) with [3H]cGMP. The format is biochemical. The note with it: [3H]cGMP substrate; for inhibition at 1 µM: compound 1 μM, read-out: Percent inhibition (1 μM); for inhibition at 10 µM: compound 10 μM, read-out: Percent inhibition (10 μM); for inhibition at 0.1 µM: compound 0.1 μM, read-out: Percent inhibition (0.1 μM). As to the method: Human PDE10A enzyme was generated from Sf9 or COS-7 cells transfected with the full-length gene. Cloned enzyme was extracted from homogenized cell pellets. The extracted enzyme from sf9 cells was partially purified using His-tag affinity column. The enzyme was stored at −70° C. until use. PDE activity was measured using a SPA (Scintillation Proximity Assay) (GE Healthcare). To evaluate the inhibitory activity, 10 μL of serial diluted compounds were incubated with 20 μL of PDE enzyme in assay buffer (50 mM HEPES-NaOH, 8.3 mM MgCl2, 1.7 mM EGTA, 0.1% BSA (pH 7.4)) for 30 min. at room temperature. Final concentration of DMSO in the assay was 1 percent as compounds were tested in duplicate in 96-well half-area plates (Corning). To start the reaction, 10 μL of substrate [^3H] cGMP (25 or 50 nM; enclosed in SPA kits from GE Healthcare or purchased from PerkinElmer, respectively) was added for a final assay volume of 40 μL. After 60 min incubation at room temperature, yttrium SPA beads containing Zinc sulphate were added (20 μL at 6 mg/mL) to terminate the PDE reaction. After being settled for 60 min, assay plates were counted in a scintillation counter (PerkinElmer) to allow calculation of inhibition rate. Inhibition rate was calculated on the basis of 0% control wells with DMSO and 100% control wells without enzyme.
In general terms: Scintillation proximity formats need no separation of bound from free tracer.

Where a name gives a salt, the structure may show the parent alone.

T1 sequence (Q9Y233 267-1055): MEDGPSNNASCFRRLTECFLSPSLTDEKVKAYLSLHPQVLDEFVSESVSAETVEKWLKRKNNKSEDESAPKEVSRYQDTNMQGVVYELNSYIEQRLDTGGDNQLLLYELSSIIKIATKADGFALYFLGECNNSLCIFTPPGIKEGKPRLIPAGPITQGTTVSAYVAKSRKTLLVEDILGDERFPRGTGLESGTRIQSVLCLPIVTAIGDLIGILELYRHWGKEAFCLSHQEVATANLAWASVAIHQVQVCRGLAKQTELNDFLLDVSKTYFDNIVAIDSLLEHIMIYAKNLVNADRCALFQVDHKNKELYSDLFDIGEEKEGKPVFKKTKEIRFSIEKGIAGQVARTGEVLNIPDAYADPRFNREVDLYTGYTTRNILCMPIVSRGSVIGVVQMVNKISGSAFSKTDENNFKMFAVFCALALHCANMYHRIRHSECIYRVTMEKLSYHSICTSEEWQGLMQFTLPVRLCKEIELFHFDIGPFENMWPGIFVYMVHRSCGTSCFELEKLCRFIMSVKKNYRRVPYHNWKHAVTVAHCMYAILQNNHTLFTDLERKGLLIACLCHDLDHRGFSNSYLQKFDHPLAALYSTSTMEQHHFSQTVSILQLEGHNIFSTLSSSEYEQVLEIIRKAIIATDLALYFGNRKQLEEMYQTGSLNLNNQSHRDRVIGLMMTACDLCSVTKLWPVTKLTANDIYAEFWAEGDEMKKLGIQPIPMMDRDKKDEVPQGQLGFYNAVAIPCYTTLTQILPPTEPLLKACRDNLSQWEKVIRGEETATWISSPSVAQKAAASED

In general, inhibition refers to the drop in the measured response relative to a control, in per cent. `CCn1c(=O)n(-c2ccc(Oc3nc4ccccc4n3CCO)cc2)c2ncccc21` [Example 39, 1-ethyl-3-(4-{[1-(2-hydroxyethyl)-1H-benzimidazol-2-yl]oxy}phenyl)-1,3-dihydro-2H-imidazo[4,5-b]pyridin-2-one]: at Human PDE10A enzyme, the inhibition at 1 µM amounted to 100% and the inhibition at 10 µM was 101%.
As for `CCn1c(=O)n(-c2ccc(Oc3nc4cccnc4n3C)cc2)c2nccc(CO)c21` [Example 138, 1-ethyl-7-(hydroxymethyl)-3-{4-[(3-methyl-3H-imidazo[4,5-b]pyridin-2-yl)oxy]phenyl}-1,3-dihydro-2H-imidazo[4,5-b]pyridin-2-one], on Human PDE10A enzyme, the inhibition at 1 µM is 93% and the inhibition at 10 µM amounted to 105%.
The term melting point denotes the temperature, or range, at which the solid turns liquid. Take `CCn1c(=O)n(-c2ccc(Oc3nc4ccccc4n3C)cc2)c2ncccc21` [Example 19, 1-ethyl-3-{4-[(1-methyl-1H-benzimidazol-2-yl)oxy]phenyl}-1,3-dihydro-2H-imidazo[4,5-b]pyridin-2-one]: the melting point is 184 to 186 °C.
On to `CCn1c(=O)n(-c2ccc3c(c2)CCN3c2nc3ccccc3[nH]2)c2ncccc21` [Example 13, 3-[1-(1H-benzimidazol-2-yl)-2,3-dihydro-1H-indol-5-yl]-1-ethyl-1,3-dihydro-2H-imidazo[4,5-b]pyridin-2-one], for which, at Human PDE10A enzyme, the inhibition at 1 µM came to 100% and the inhibition at 10 µM amounted to 101%.
On to `CCn1c(=O)n(-c2ccc(Oc3nc4ncccc4n3C)cc2)c2ncccc21` [Example 85, 1-ethyl-3-{4-[(1-methyl-1H-imidazo[4,5-b]pyridin-2-yl)oxy]phenyl}-1,3-dihydro-2H-imidazo[4,5-b]pyridin-2-one], for which, at Human PDE10A enzyme, the inhibition at 1 µM came to 95% and the inhibition at 10 µM turned out to be 99%.
For `Cn1c(Oc2ccc(N3C(=O)C(C)(C)c4cccnc43)cc2)nc2ccccc21` [Example 102, 3,3-dimethyl-1-{4-[(1-methyl-1H-benzimidazol-2-yl)oxy]phenyl}-1,3-dihydro-2H-pyrrolo[2,3-b]pyridin-2-one], in that order: 99% and 106%.
Turning to `CCn1c(=O)n(-c2ccc(Oc3nc4ccccc4[nH]3)cc2)c2ncccc21` [Example 8, 3-[4-(1H-benzimidazol-2-yloxy)phenyl]-1-ethyl-1,3-dihydro-2H-imidazo[4,5-b]pyridin-2-one hydrochloride], at Human PDE10A enzyme, the inhibition at 0.1 µM was 98%.
For `CC(C)n1c(=O)n(-c2ccc(Oc3nc4cccnc4n3C)cc2)c2ncc(Cl)cc21` [Example 126, 6-chloro-1-(1-methylethyl)-3-{4-[(3-methyl-3H-imidazo[4,5-b]pyridin-2-yl)oxy]phenyl}-1,3-dihydro-2H-imidazo[4,5-b]pyridin-2-one], at Human PDE10A enzyme, the inhibition at 1 µM was 98% and the inhibition at 10 µM was found to be 100%.
Consider `CCn1c(=O)n(-c2ccc(Oc3nc4cccnc4n3C)cc2)c2ncc(C#N)cc21` [Example 108, 1-ethyl-3-{4-[(3-methyl-3H-imidazo[4,5-b]pyridin-2-yl)oxy]phenyl}-2-oxo-2,3-dihydro-1H-imidazo[4,5-b]pyridine-6-carbonitrile], for which, on Human PDE10A enzyme, the inhibition at 1 µM worked out at 100% and the inhibition at 10 µM stood at 102%.
Regarding `CC1(C)C(=O)N(c2ccc(Oc3nc4ccccc4[nH]3)cc2)c2ncccc21` [Example 9, 1-[4-(1H-benzimidazol-2-yloxy)phenyl]-3,3-dimethyl-1,3-dihydro-2H-pyrrolo[2,3-b]pyridin-2-one dihydrochloride], on Human PDE10A enzyme, the inhibition at 1 µM came to 99% and the inhibition at 10 µM amounted to 99%.
In the case of `CCn1c(=O)n(-c2ccc(Oc3nc4cccnc4n3C)cc2)c2ncccc21` [Example 86, 1-ethyl-3-{4-[(3-methyl-3H-imidazo[4,5-b]pyridin-2-yl)oxy]phenyl}-1,3-dihydro-2H-imidazo[4,5-b]pyridin-2-one], on Human PDE10A enzyme, the inhibition at 1 µM was found to be 97% and the inhibition at 10 µM is 98%.
For the compound `CCn1c(=O)n(-c2ccc(Oc3nc4cccnc4[nH]3)cc2)c2ncccc21` [Example 75, 1-ethyl-3-[4-(3H-imidazo[4,5-b]pyridin-2-yloxy)phenyl]-1,3-dihydro-2H-imidazo[4,5-b]pyridin-2-one], at Human PDE10A enzyme, the inhibition at 1 µM was determined as 98% and the inhibition at 10 µM was determined as 101%.
With `CCn1c(=O)n(-c2ccc(Oc3nc4ccccc4n3CC(C)(C)O)cc2)c2ncccc21` [Example 40, 1-ethyl-3-(4-{[1-(2-hydroxy-2-methylpropyl)-1H-benzimidazol-2-yl]oxy}phenyl)-1,3-dihydro-2H-imidazo[4,5-b]pyridin-2-one], on Human PDE10A enzyme, the inhibition at 1 µM was found to be 99% and the inhibition at 10 µM turned out to be 101%.
For `Cn1c(Oc2ccc(-n3c(=O)n(C4CC4)c4cccnc43)cc2)nc2cccnc21` [Example 99, 1-cyclopropyl-3-{4-[(3-methyl-3H-imidazo[4,5-b]pyridin-2-yl)oxy]phenyl}-1,3-dihydro-2H-imidazo[4,5-b]pyridin-2-one], in that order: 100% and 105%.
As to `CCn1c(=O)n(-c2ccc(Oc3nc4ccccc4n3C)cc2)c2ncc(F)cc21` [Example 132, 1-ethyl-6-fluoro-3-{4-[(1-methyl-1H-benzimidazol-2-yl)oxy]phenyl}-1,3-dihydro-2H-imidazo[4,5-b]pyridin-2-one], at Human PDE10A enzyme, the inhibition at 1 µM stood at 104% and the inhibition at 10 µM turned out to be 107%.
With `O=c1[nH]c2cccnc2n1-c1ccc(Nc2nc3ccccc3o2)cc1` [Example 1, 3-[4-(1,3-benzoxazol-2-ylamino)phenyl]-1,3-dihydro-2H-imidazo[4,5-b]pyridin-2-one], at Human PDE10A enzyme, the inhibition at 1 µM came to 98% and the inhibition at 10 µM was 100%.
In the case of `CCn1c(=O)n(-c2ccc(Oc3nc4ccccc4[nH]3)cc2)c2nccc(C)c21` [Example 64, 3-[4-(1H-benzimidazol-2-yloxy)phenyl]-1-ethyl-7-methyl-1,3-dihydro-2H-imidazo[4,5-b]pyridin-2-one dihydrochloride], on Human PDE10A enzyme, the inhibition at 1 µM amounted to 100% and the inhibition at 10 µM was 101%.
For `CCCn1c(=O)n(-c2ccc(Oc3nc4cccnc4n3C)cc2)c2ncccc21` [Example 97, 3-{4-[(3-methyl-3H-imidazo[4,5-b]pyridin-2-yl)oxy]phenyl}-1-propyl-1,3-dihydro-2H-imidazo[4,5-b]pyridin-2-one], in that order: 97% and 98%.
For `CCn1c(=O)n(-c2ccc(Oc3nc4c(n3C)CCCC4)cc2)c2ncccc21` [Example 112, 1-ethyl-3-{4-[(1-methyl-4,5,6,7-tetrahydro-1H-benzimidazol-2-yl)oxy]phenyl}-1,3-dihydro-2H-imidazo[4,5-b]pyridin-2-one], in that order: 99% and 98%.
In the case of `CCn1c(=O)n(-c2ccc(N3CCn4c3nc3ccccc34)cc2)c2ncccc21` [Example 24, 3-[4-(2,3-dihydro-1H-imidazo[1,2-a]benzimidazol-1-yl)phenyl]-1-ethyl-1,3-dihydro-2H-imidazo[4,5-b]pyridin-2-one], on Human PDE10A enzyme, the inhibition at 0.1 µM turned out to be 98%.
In the case of `CCn1c(=O)n(-c2ccc(-n3ncc4cccnc43)cc2)c2ncccc21` [Example 12, 1-Ethyl-3-[4-(1H-pyrazolo[3,4-b]pyridin-1-yl)phenyl]-1,3-dihydro-2H-imidazo[4,5-b]pyridin-2-one], at Human PDE10A enzyme, the inhibition at 1 µM turned out to be 93% and the inhibition at 10 µM was found to be 99%.
